Test: xn = mol fraction of the nth substance listed
Conditions: for electrical conductivity: 101 kPa, frequency 2 MHz; for viscosity: 100 kPa

O=S(=O)([O-])C(F)(F)F.[Li+] + O=S(=O)([N-]S(=O)(=O)C(F)(F)F)C(F)(F)F.[Li+] + O
Conditions	electrical conductivity [S/m]	viscosity [mPa·s]
273 K, x2 = 0.001799, x1 = 0.0005943	0.413	–
273 K, x2 = 0.005377, x1 = 0.001799	0.96	–
273 K, x2 = 0.00893, x1 = 0.003054	1.38	–
273 K, x2 = 0.01246, x1 = 0.004127	1.716	–
273 K, x2 = 0.01596, x1 = 0.005377	1.99	–
273 K, x2 = 0.01944, x1 = 0.006623	2.219	–
273 K, x2 = 0.05129, x1 = 0.0177	2.96	–
273 K, x2 = 0.08265, x1 = 0.02921	2.59	–
273 K, x2 = 0.112, x1 = 0.04029	1.98	–
273 K, x2 = 0.1395, x1 = 0.05129	1.422	–
273 K, x2 = 0.1654, x1 = 0.06203	0.985	–
273 K, x2 = 0.1898, x1 = 0.07238	0.666	–
273 K, x2 = 0.2128, x1 = 0.08265	0.443	–
273 K, x2 = 0.2345, x1 = 0.0927	0.291	–
273 K, x2 = 0.2551, x1 = 0.1024	0.189	–
273 K, x2 = 0.2745, x1 = 0.112	0.121	–
278 K, x2 = 0.001799, x1 = 0.0005943	0.475	–
278 K, x2 = 0.005377, x1 = 0.001799	1.114	–
278 K, x2 = 0.00893, x1 = 0.003054	1.606	–
278 K, x2 = 0.01246, x1 = 0.004127	2.004	–
278 K, x2 = 0.01596, x1 = 0.005377	2.33	–
278 K, x2 = 0.01944, x1 = 0.006623	2.6	–
278 K, x2 = 0.05129, x1 = 0.0177	3.47	–
278 K, x2 = 0.08265, x1 = 0.02921	3.039	–
278 K, x2 = 0.112, x1 = 0.04029	2.329	–
278 K, x2 = 0.1395, x1 = 0.05129	1.68	–
278 K, x2 = 0.1654, x1 = 0.06203	1.17	–
278 K, x2 = 0.1898, x1 = 0.07238	0.802	–
278 K, x2 = 0.2128, x1 = 0.08265	0.54	–
278 K, x2 = 0.2345, x1 = 0.0927	0.36	–
278 K, x2 = 0.2551, x1 = 0.1024	0.237	–
278 K, x2 = 0.2745, x1 = 0.112	0.155	–
283 K, x2 = 0.001799, x1 = 0.0005943	0.542	–
283 K, x2 = 0.005377, x1 = 0.001799	1.28	–
283 K, x2 = 0.00893, x1 = 0.003054	1.86	–
283 K, x2 = 0.01246, x1 = 0.004127	2.323	–
283 K, x2 = 0.01596, x1 = 0.005377	2.704	–
283 K, x2 = 0.01944, x1 = 0.006623	3.017	–
283 K, x2 = 0.05129, x1 = 0.0177	4.041	–
283 K, x2 = 0.08265, x1 = 0.02921	3.538	–
283 K, x2 = 0.112, x1 = 0.04029	2.718	–
283 K, x2 = 0.1395, x1 = 0.05129	1.97	–
283 K, x2 = 0.1654, x1 = 0.06203	1.39	–
283 K, x2 = 0.1898, x1 = 0.07238	0.957	–
283 K, x2 = 0.2128, x1 = 0.08265	0.652	–
283 K, x2 = 0.2345, x1 = 0.0927	0.441	–
283 K, x2 = 0.2551, x1 = 0.1024	0.295	–
283 K, x2 = 0.2745, x1 = 0.112	0.196	–
288.1 K, x2 = 0.001799, x1 = 0.0005943	0.615	–
288.1 K, x2 = 0.005377, x1 = 0.001799	1.47	–
288.1 K, x2 = 0.00893, x1 = 0.003054	2.134	–
288.1 K, x2 = 0.01246, x1 = 0.004127	2.67	–
288.1 K, x2 = 0.01596, x1 = 0.005377	3.116	–
288.1 K, x2 = 0.01944, x1 = 0.006623	3.48	–
288.1 K, x2 = 0.05129, x1 = 0.0177	4.67	–
288.1 K, x2 = 0.08265, x1 = 0.02921	4.09	–
288.1 K, x2 = 0.112, x1 = 0.04029	3.147	–
288.1 K, x2 = 0.1395, x1 = 0.05129	2.29	–
288.1 K, x2 = 0.1654, x1 = 0.06203	1.625	–
288.1 K, x2 = 0.1898, x1 = 0.07238	1.133	–
288.1 K, x2 = 0.2128, x1 = 0.08265	0.782	–
288.1 K, x2 = 0.2345, x1 = 0.0927	0.535	–
288.1 K, x2 = 0.2551, x1 = 0.1024	0.364	–
288.1 K, x2 = 0.2745, x1 = 0.112	0.246	–
293 K, x2 = 0.001799, x1 = 0.0005943	0.693	–
293 K, x2 = 0.005377, x1 = 0.001799	1.67	–
293 K, x2 = 0.00893, x1 = 0.003054	2.434	–
293 K, x2 = 0.01246, x1 = 0.004127	3.05	–
293 K, x2 = 0.01596, x1 = 0.005377	3.56	–
293 K, x2 = 0.01944, x1 = 0.006623	3.98	–
293 K, x2 = 0.05129, x1 = 0.0177	5.346	–
293 K, x2 = 0.08265, x1 = 0.02921	4.68	–
293 K, x2 = 0.112, x1 = 0.04029	3.616	–
293 K, x2 = 0.1395, x1 = 0.05129	2.648	–
293 K, x2 = 0.1654, x1 = 0.06203	1.89	–
293 K, x2 = 0.1898, x1 = 0.07238	1.331	–
293 K, x2 = 0.2128, x1 = 0.08265	0.929	–
293 K, x2 = 0.2345, x1 = 0.0927	0.644	–
293 K, x2 = 0.2551, x1 = 0.1024	0.445	–
293 K, x2 = 0.2745, x1 = 0.112	0.305	–
298.1 K, x2 = 0.001799, x1 = 0.0005943	0.778	–
298.1 K, x2 = 0.005377, x1 = 0.001799	1.89	–
298.1 K, x2 = 0.00893, x1 = 0.003054	2.76	–
298.1 K, x2 = 0.01246, x1 = 0.004127	3.46	–
298.1 K, x2 = 0.01596, x1 = 0.005377	4.045	–
298.1 K, x2 = 0.01944, x1 = 0.006623	4.522	–
298.1 K, x2 = 0.05129, x1 = 0.0177	6.08	–
298.1 K, x2 = 0.08265, x1 = 0.02921	5.326	–
298.1 K, x2 = 0.112, x1 = 0.04029	4.123	–
298.1 K, x2 = 0.1395, x1 = 0.05129	3.035	–
298.1 K, x2 = 0.1654, x1 = 0.06203	2.18	–
298.1 K, x2 = 0.1898, x1 = 0.07238	1.55	–
298.1 K, x2 = 0.2128, x1 = 0.08265	1.09	–
298.1 K, x2 = 0.2345, x1 = 0.0927	0.768	–
298.1 K, x2 = 0.2551, x1 = 0.1024	0.537	–
298.1 K, x2 = 0.2745, x1 = 0.112	0.374	–
298.15 K, x1 = 0.04029, x2 = 0.1114	–	7.5
298.15 K, x1 = 0.07222, x2 = 0.1893	–	29.1
298.15 K, x1 = 0.09226, x2 = 0.2336	–	69
298.15 K, x1 = 0.1024, x2 = 0.2553	–	98
298.15 K, x1 = 0.1122, x2 = 0	–	3.7
298.15 K, x1 = 0.1122, x2 = 0.2745	–	152
298.15 K, x1 = 0.1783, x2 = 0	–	9.2
298.15 K, x1 = 0.2388, x2 = 0	–	21.9
298.15 K, x1 = 0.2541, x2 = 0	–	31.8
298.15 K, x1 = 0.2743, x2 = 0	–	47.2
303 K, x2 = 0.001799, x1 = 0.0005943	0.867	–
303 K, x2 = 0.005377, x1 = 0.001799	2.117	–
303 K, x2 = 0.00893, x1 = 0.003054	3.1	–
303 K, x2 = 0.01246, x1 = 0.004127	3.9	–
303 K, x2 = 0.01596, x1 = 0.005377	4.56	–
303 K, x2 = 0.01944, x1 = 0.006623	5.1	–
303 K, x2 = 0.05129, x1 = 0.0177	6.85	–
303 K, x2 = 0.08265, x1 = 0.02921	6.011	–
303 K, x2 = 0.112, x1 = 0.04029	4.67	–
303 K, x2 = 0.1395, x1 = 0.05129	3.45	–
303 K, x2 = 0.1654, x1 = 0.06203	2.5	–
303 K, x2 = 0.1898, x1 = 0.07238	1.79	–
303 K, x2 = 0.2128, x1 = 0.08265	1.28	–
303 K, x2 = 0.2345, x1 = 0.0927	0.908	–
303 K, x2 = 0.2551, x1 = 0.1024	0.643	–
303 K, x2 = 0.2745, x1 = 0.112	0.454	–
308.1 K, x2 = 0.001799, x1 = 0.0005943	0.961	–
308.1 K, x2 = 0.005377, x1 = 0.001799	2.36	–
308.1 K, x2 = 0.00893, x1 = 0.003054	3.46	–
308.1 K, x2 = 0.01246, x1 = 0.004127	4.36	–
308.1 K, x2 = 0.01596, x1 = 0.005377	5.1	–
308.1 K, x2 = 0.01944, x1 = 0.006623	5.702	–
308.1 K, x2 = 0.05129, x1 = 0.0177	7.67	–
308.1 K, x2 = 0.08265, x1 = 0.02921	6.732	–
308.1 K, x2 = 0.112, x1 = 0.04029	5.239	–
308.1 K, x2 = 0.1395, x1 = 0.05129	3.89	–
308.1 K, x2 = 0.1654, x1 = 0.06203	2.839	–
308.1 K, x2 = 0.1898, x1 = 0.07238	2.05	–
308.1 K, x2 = 0.2128, x1 = 0.08265	1.48	–
308.1 K, x2 = 0.2345, x1 = 0.0927	1.06	–
308.1 K, x2 = 0.2551, x1 = 0.1024	0.763	–
308.1 K, x2 = 0.2745, x1 = 0.112	0.545	–
308.15 K, x1 = 0.04029, x2 = 0.1114	–	5.6
308.15 K, x1 = 0.07222, x2 = 0.1893	–	20.6
308.15 K, x1 = 0.09226, x2 = 0.2336	–	45.7
308.15 K, x1 = 0.1024, x2 = 0.2553	–	63
308.15 K, x1 = 0.1122, x2 = 0	–	2.9
308.15 K, x1 = 0.1122, x2 = 0.2745	–	94.6
308.15 K, x1 = 0.1783, x2 = 0	–	6.9
308.15 K, x1 = 0.2388, x2 = 0	–	16
308.15 K, x1 = 0.2541, x2 = 0	–	22.6
308.15 K, x1 = 0.2743, x2 = 0	–	32.9
313 K, x2 = 0.001799, x1 = 0.0005943	1.06	–
313 K, x2 = 0.005377, x1 = 0.001799	2.61	–
313 K, x2 = 0.00893, x1 = 0.003054	3.835	–
313 K, x2 = 0.01246, x1 = 0.004127	4.834	–
313 K, x2 = 0.01596, x1 = 0.005377	5.66	–
313 K, x2 = 0.01944, x1 = 0.006623	6.331	–
313 K, x2 = 0.05129, x1 = 0.0177	8.518	–
313 K, x2 = 0.08265, x1 = 0.02921	7.48	–
313 K, x2 = 0.112, x1 = 0.04029	5.838	–
313 K, x2 = 0.1395, x1 = 0.05129	4.36	–
313 K, x2 = 0.1654, x1 = 0.06203	3.201	–
313 K, x2 = 0.1898, x1 = 0.07238	2.334	–
313 K, x2 = 0.2128, x1 = 0.08265	1.7	–
313 K, x2 = 0.2345, x1 = 0.0927	1.234	–
313 K, x2 = 0.2551, x1 = 0.1024	0.895	–
313 K, x2 = 0.2745, x1 = 0.112	0.647	–
